From paper PMC9949698, “Visible-Light-Controlled Histone Deacetylase Inhibitors for Targeted Cancer Therapy” (Journal of Medicinal Chemistry, 2023)
Like-named read-outs stand apart in the source and are kept apart here.

Tests used:
[1] = UV–vis spectra and optimal isomerization wavelengths; format: physicochemical; conditions: for λcis (optimal wavelength trans to cis) / λtrans (optimal wavelength cis to trans): UV–vis at 25–50 μM in DMSO, Teleopto plates (Table 1)
Experimental: Ultraviolet–visible (UV–vis) spectra were recorded using a Tecan Spark 20M Multimode Microplate reader. Samples (200 μL of compound solution/well) were prepared at […] in DMSO. Samples were measured between 300 and 800 nm with 2 nm fixed intervals in 96-well transparent plates. Illumination at different wavelengths was performed for 2 min using 96-well LED array plates (LEDA Teleopto) placed below the samples. […] Potencies were measured using a Thorlabs PM100D power energy meter connected with a standard photodiode power sensor (S120VC).

HeLa cells = experiment: HeLa cell viability, MTS assay, dark or preillumination; format: cell-based; conditions: for IC50: Homo sapiens, HeLa; for IC50(dark)/IC50(light): Table 5; for viability decreasing to: under illumination
Experimental: We then proceeded to evaluate the effect of the compounds in a viability assay against HeLa cells.
(§1) HeLa, MCF7, and HT29 cells were maintained in adherent cultures in DMEM supplemented with 10% FBS. KG1 cells were maintained in a suspension culture in IMDM supplemented with 20% FBS.
Stock solutions of the compounds were heated to 60 or 80 °C to obtain solutions with the maximum amount of the trans isomer (dark). […] The solutions were then serially diluted with DMEM to give 20 times the desired final concentration, maintaining DMSO at 10%.
Cells were seeded in 96-well black flat bottom plates with a clear bottom at a density of 5 × 10^3 cells/well (HeLa) or 1 × 10^4 cells/well (MCF7, HT29, and KG1), in a volume of 95 μL.
(§2) Viability of HeLa, MCF7, and […] cells was determined with a CellTiter 96 assay (Promega), according to the manufacturer’s instructions. Briefly, 20 μL of CellTiter 96 reagent was added to each well, the plates were incubated at 37 °C for 2 h, and the absorbance at 490 nm was recorded. Viability is expressed as a percentage with respect to the nontreated cells.

[2] = cited from earlier work
[3] = UV–vis spectra and optimal isomerization wavelengths; format: physicochemical; conditions: 25–50 μM in DMSO, using CoolLed at 217 mW/cm^2 instead of Teleopto plates
MCF7 cells = experiment: MCF7 cell viability, MTS assay, 50 μM; format: cell-based; conditions: 48 h; for effect on viability when preilluminated: preilluminated (380 or 550 nm)
Experimental: (§3) HDACis have been proposed as a potential therapeutic strategy against cancer stem cells (CSCs).[39],[40] We selected three cell lines that have a strong CSC phenotype (HT29,[41],[42] MCF7[43]−[45] and KG1[46]) and tested the best compounds at 50 μM under dark and illumination conditions.
as §1
(§4) Stock solutions of the compounds were heated to 60 or 80 °C to obtain solutions with the maximum amount of the trans isomer (dark). For the “light” solutions, the stock solutions were illuminated with 96-well LED array plates for 3 min at the maximum potency. The solutions were then serially diluted with DMEM to give 20 times the desired final concentration, maintaining DMSO at 10%.
(§5) Cells were seeded in 96-well black flat bottom plates with a clear bottom at a density of 5 × 10^3 cells/well (HeLa) or 1 × 10^4 cells/well (MCF7, HT29, and KG1), in a volume of 95 μL. After 24 h, 5 μL of compound solutions (20×) were added. Cells were incubated for 48 h.
as §2

HT29 cells = experiment: HT29 cell viability, MTS assay, 50 μM; format: cell-based; conditions: 48 h; for effect on viability when preilluminated: preilluminated (380 or 550 nm)
Experimental: as §3, §1, §4, §5, §2

KG1 cells = experiment: KG1 cell viability, CellTiterGlo assay, 50 μM; format: cell-based; conditions: 48 h; for effect on viability when preilluminated: preilluminated (380 or 550 nm)
Experimental: as §3, §1, §4, §5
Viability of KG1 cells was determined with a CellTiter-Glo (Promega) assay, according to the manufacturer’s instructions. Briefly, 100 μL of CellTiter-Glo reagent was added to each well, the plates were kept at room temperature for 10 min, and the luminescence was recorded. Viability is expressed as a percentage with respect to the nontreated cells.

[4] = E/Z composition under light or temperature conditions by HPLC; format: physicochemical
human recombinant HDAC1 = molecular target: T1, human recombinant HDAC1 (Homo sapiens, UniProt Q13547); experiment: Fluorogenic assay with human recombinant HDAC1, dark or illumination; format: biochemical; conditions: for activity at the highest tested concentration in the dark: 10 μM; for IC50 under illumination, in words: continuous illumination
T1 construct: purchased BPS Bioscience
Experimental: To study the inhibition of HDAC enzymes by the compounds, we used a fluorogenic assay with human recombinant HDAC1.[32] The enzyme was incubated with an acetylated substrate and each inhibitor for 1 h at room temperature, under either dark or light conditions. We opted for illumination throughout the incubation period to maintain the maximum proportion of cis under light conditions. […] Then, the deacetylated substrate generated a fluorescent coumarin after incubation of the mixture with trypsin at 37 °C for 20 min.
Stock solutions of the compounds were diluted to 1 mM in DMSO and then heated to 60 or 80 °C to obtain solutions with the maximum amount of the trans isomer (dark). […] The 1 mM solutions were then serially diluted with HDAC buffer to 10 times the desired concentration, maintaining DMSO at 10%.
In control wells without the compound, inhibitor, or enzyme, HDAC buffer was added instead. […] Then, 50 μL of the stop solution was added and the plates were incubated at 37 °C for 20 min in the dark. Fluorescence was measured at a λem of 460 nm and a λex of 380 nm. Enzyme activity is expressed as a percentage with respect to the nontreated cells, after subtracting the blank (well with no enzyme and no compound).

[5] = UV–vis spectra at 25–50 μM in DMSO (Table 1)
[6] = preillumination 380 nm, 48 h, read-out: IC50 light (concentration that reduces cell viability by half)
[7] = HPLC at isosbestic point (310–338 nm), 100 μM in DMSO after illumination with λcis (Table 1)
[8] = HPLC at isosbestic point (310–338 nm), 100 μM in DMSO after illumination with λtrans (Table 1)
[9] = dark vs 365 or 380 nm (Table 2), fold
[10] = dark, 1 h at room temperature (Table 2), read-out: IC50 dark
[11] = illumination 365 or 380 nm, 1 h at room temperature (Table 2), read-out: IC50 light
[12] = UV–vis spectra at 25–100 μM in DMSO (Table 3)
[13] = preillumination 550 nm, 48 h, read-out: IC50 light (concentration that reduces cell viability by half)
[14] = HPLC at isosbestic point (290–336 nm), 100 μM in DMSO after illumination with λcis (Table 3)
[15] = HPLC at isosbestic point (290–336 nm), 100 μM in DMSO after illumination with λtrans (Table 3)
[16] = continuous illumination 550 nm (Table 4), read-out: IC50 light
[17] = dark (Table 4), read-out: IC50 dark

T1 sequence (Q13547 whole entry): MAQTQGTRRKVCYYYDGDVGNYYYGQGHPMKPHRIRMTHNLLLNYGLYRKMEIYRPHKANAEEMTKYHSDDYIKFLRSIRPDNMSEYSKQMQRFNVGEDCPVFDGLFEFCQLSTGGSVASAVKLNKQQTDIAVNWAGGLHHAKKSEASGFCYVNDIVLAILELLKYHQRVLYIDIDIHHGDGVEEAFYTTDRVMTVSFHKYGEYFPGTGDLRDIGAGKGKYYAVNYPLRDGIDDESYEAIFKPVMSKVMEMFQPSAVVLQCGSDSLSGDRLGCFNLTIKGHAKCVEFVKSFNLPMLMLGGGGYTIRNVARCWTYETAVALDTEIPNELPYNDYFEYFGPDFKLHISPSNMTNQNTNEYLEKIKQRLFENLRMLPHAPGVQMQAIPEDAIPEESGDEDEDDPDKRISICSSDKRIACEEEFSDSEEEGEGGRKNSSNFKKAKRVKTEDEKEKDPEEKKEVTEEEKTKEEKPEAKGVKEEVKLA

Structure (SMILES)	λmax trans [1, 5]	effect on viability in the dark (MCF7 cells)	effect on viability when preilluminated (MCF7 cells)	effect on viability in the dark (HT29 cells)	effect on viability when preilluminated (HT29 cells)	λcis (optimal wavelength trans to cis) [1]	IC50(dark)/IC50(light) (HeLa cells)	effect on viability in the dark (KG1 cells)	effect on viability when preilluminated (KG1 cells)	λcis [1, 12]	λmax cis [1, 12]	λmax trans [1, 12]	λtrans [1, 12]	IC50 (HeLa cells; [13])	cell death under dark vs light conditions (HeLa cells; in words)	% cis at λcis [4, 14]	% trans at λtrans [4, 15]	IC50(dark)/IC50(light) (human recombinant HDAC1; Table 4)	IC50 (human recombinant HDAC1; [16])	IC50 (human recombinant HDAC1; [17])	also measured
CN(C)c1ccc(/N=N/c2ccc(C(=O)Nc3ccccc3N)cc2)cc1 [Compound 2]	450 nm																				activity under dark and illumination conditions (HeLa cells; in words): inactive; activation wavelength [2]: 470 nm; half-life ([2]; room temperature in PBS): 60 μs; λcis [3]: 460^5 nm; λtrans [3]: 580^5 nm
COc1ccc(/N=N/c2ccc(/C=C/C(=O)Nc3ccccc3N)cc2)cc1 [Compound 11, (E)-N-(2-Aminophenyl)-3-(4-((E)-(4-methoxyphenyl)diazenyl)phenyl)acrylamide]	378 nm	little or no effect	significantly reduced the viability	little or no effect	significantly reduced the viability	380 nm	>8.3	little or no effect	significantly reduced the viability												stability after multiple cis/trans isomerization cycles ([1]; 25 μM in DMSO, 380–550 nm cycles, 2 min each): stable; λtrans (optimal wavelength cis to trans) [1]: 550 nm; IC50 (HeLa cells; [6]): 12 µM; IC50 dark (concentration that reduces cell viability by half) (HeLa cells; dark, 48 h): no activity; viability decreasing to (HeLa cells; 48 h): 30%; % cis at λcis [4, 7]: 80%; % trans at λtrans [4, 8]: 67%; IC50(dark)/IC50(light) (human recombinant HDAC1; [9]): >50; IC50 (human recombinant HDAC1; [10]): > 10 µM; IC50 (human recombinant HDAC1; [11]): 0.2 µM
COc1ccc(/N=N/c2ccc(/C=C/C(=O)Nc3cc(-c4cccs4)ccc3N)cc2)cc1 [Compound 20, (E)-N-(2-Amino-5-(thiophen-2-yl)phenyl)-3-(4-((E)-(4-methoxyphenyl)diazenyl)phenyl)acrylamide]	378 nm	little or no effect	significantly reduced the viability	little or no effect	significantly reduced the viability	380 nm	>14	little or no effect	significantly reduced the viability												λtrans (optimal wavelength cis to trans) [1]: 550 nm; IC50 (HeLa cells; [6]): 7.4 µM; IC50 (HeLa cells; preillumination, 24 h, read-out: IC50 (365 nm, 24 h)): 13 µM; IC50 dark (concentration that reduces cell viability by half) (HeLa cells; dark, 48 h): no activity; viability decreasing to (HeLa cells; 48 h): 30%; % cis at λcis [4, 7]: 63%; % trans at λtrans [4, 8]: 82%; IC50(dark)/IC50(light) (human recombinant HDAC1; [9]): >29; IC50 (human recombinant HDAC1; [10]): > 10 µM; IC50 (human recombinant HDAC1; [11]): 0.35 µM
COc1cc(F)c(/N=N/c2c(F)cc(/C=C/C(=O)Nc3ccccc3N)cc2F)c(F)c1 [Compound 32a, (E)-N-(2-Aminophenyl)-3-(4-((E)-(2,6-difluoro-4-methoxyphenyl)diazenyl)-3,5-difluorophenyl)acrylamide]		little or no effect	significantly reduced the viability	little or no effect	significantly reduced the viability		>2.7	little or no effect	significantly reduced the viability	550 nm	434 nm	358 nm	455 nm	37 µM	inducing cell death only under light conditions	77%	74%	>5.0	2 µM	> 10 µM	activity at the highest tested concentration in the dark (human recombinant HDAC1; dark): no or little activity; IC50 under illumination, in words (human recombinant HDAC1): low micromolar range
COc1cc(F)c(/N=N/c2c(F)cc(/C=C/C(=O)Nc3ccccc3N)cc2Cl)c(Cl)c1 [Compound 32c, (E)-N-(2-Aminophenyl)-3-(3-chloro-4-((E)-(2-chloro-6-fluoro-4-methoxyphenyl)diazenyl)-5-fluorophenyl)acrylamide]		little or no effect	significantly reduced the viability	little or no effect	significantly reduced the viability		>2.7	little or no effect	significantly reduced the viability	550 nm	442 nm	358 nm	455 nm	37 µM	inducing cell death only under light conditions	68%	85%	>2.6	3.9 µM	> 10 µM	activity at the highest tested concentration in the dark (human recombinant HDAC1; dark): no or little activity; IC50 under illumination, in words (human recombinant HDAC1): low micromolar range
COc1cc(F)c(/N=N/c2c(F)cc(C(=O)Nc3ccccc3N)cc2F)c(F)c1 [Compound 38a, (E)-N-(2-Aminophenyl)-4-((2,6-difluoro-4-methoxyphenyl)diazenyl)-3,5-difluorobenzamide]		little or no effect	significantly reduced the viability	little or no effect	significantly reduced the viability		>3.4	little or no effect	significantly reduced the viability	550 nm	428 nm	348 nm	455 nm	29 µM	inducing cell death only under light conditions	84%	67%	≈5.9	1.7 µM	~10 µM	IC50 (HeLa cells; dark, 48 h, read-out: IC50 dark (concentration that reduces cell viability by half)): > 100 µM; IC50 (human recombinant HDAC1; supplementary CSV, read-out: HDAC1 IC50 dark): 10 µM
